Source: patent US10981879B2, “Thioether triazolopyridine and triazolopyrimidine inhibitors of myeloperoxidase” (BRISTOL-MYERS SQUIBB COMPANY, priority 2014, dated 2021)

Key:
myeloperoxidase (MPO) [1] = molecular target: T1, myeloperoxidase (MPO) (Homo sapiens (Human), UniProt P05164); assay: MPO peroxidation assay (Amplex Red); assay type: biochemical; settings: Table 1
Description: MPO peroxidation activity was measured in 100 mM KPi (pH 7.4) by utilizing the non-fluorescent reagent Amplex Red (Invitrogen catalog #A12222) which can be oxidized to the highly fluorescent resorufin. Amplex Red is oxidized by the peroxidase action of MPO to resorufin. Reactions were carried out in 50 μL total volume by adding a 25 μL mixture of 200 pM myeloperoxidase and 40 nM H2O2 (Sigma #349887) to 100 nL inhibitor in 100% DMSO in a 384 well Perkin Elmer Optiplate. Enzyme and compound were preincubated for ten minutes at rt.
After the ten minute preincubation, 25 μL of an Amplex Red mixture containing 200 μM Amplex Red and 10 mM H2O2 was added to the plate. Kinetic determinations were carried out immediately on a Perkin Elmer Envision (15 minute kinetic read, Ex: 535 nm, Em: 590 nm).
IC50 values were calculated by determining the slope of the linear portion of the kinetic trace (180-540 secs), and using that calculated slope to determine % inhibition occurring at each concentration of inhibitor using the following equation:
[formula] where A=minimal Y value (activity level of inhibited sample), B=maximal Y value (activity level of uninhibited sample), C=Log IC50, D=Hill Slope, x=concentration of inhibitor. MPO Chlorination Assay

myeloperoxidase (MPO) [2] = molecular target: T1, myeloperoxidase (MPO); assay: MPO chlorination assay (APF); assay type: biochemical
Procedure, shortened: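 Human MPO (200 pM) with 120 mM NaCl preincubated with inhibitor 10 minutes at rt in 100 mM KPi pH 7.4. Reaction started with APF mixture containing 10 μM H2O2; fluorescein fluorescence (ex 485/em 535 nm) read kinetically 3 minutes. IC50 from slopes of linear kinetic portion, fitted with a four-parameter Hill equation.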

[3] = MPO chlorination assay (APF), Table 1, read-out: APF IC50
[4] = MPO chlorination assay, ranges given, read-out: MPO chlorination assay IC50

T1 sequence (P05164 49-745): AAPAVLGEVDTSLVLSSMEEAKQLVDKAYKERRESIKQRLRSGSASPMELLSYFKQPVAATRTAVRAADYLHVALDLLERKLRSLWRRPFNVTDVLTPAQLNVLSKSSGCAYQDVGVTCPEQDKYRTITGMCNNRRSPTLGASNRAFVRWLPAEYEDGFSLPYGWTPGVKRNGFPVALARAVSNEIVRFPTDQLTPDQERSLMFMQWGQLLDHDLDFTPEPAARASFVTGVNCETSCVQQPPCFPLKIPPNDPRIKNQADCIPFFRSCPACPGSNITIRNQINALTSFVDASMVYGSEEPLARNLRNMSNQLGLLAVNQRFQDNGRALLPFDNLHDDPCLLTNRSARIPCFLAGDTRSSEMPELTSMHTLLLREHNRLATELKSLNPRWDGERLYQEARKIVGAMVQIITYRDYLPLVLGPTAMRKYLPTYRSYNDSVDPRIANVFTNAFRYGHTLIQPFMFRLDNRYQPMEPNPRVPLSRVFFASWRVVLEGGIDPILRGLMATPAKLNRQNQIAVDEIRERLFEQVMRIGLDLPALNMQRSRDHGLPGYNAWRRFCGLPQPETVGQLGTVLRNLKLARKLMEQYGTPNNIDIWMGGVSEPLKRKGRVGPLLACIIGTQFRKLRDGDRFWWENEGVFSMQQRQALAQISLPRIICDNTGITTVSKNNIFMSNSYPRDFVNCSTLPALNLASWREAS

Nc1cc(SCc2ccccc2F)c2nn[nH]c2n1 [Example 3, 7-((2-fluorobenzyl)thio)-3H-[1,2,3]triazolo [4,5-b]pyridin-5-amine]
IC50 (myeloperoxidase (MPO) [1]): 7 nM
IC50 (myeloperoxidase (MPO) [2]; [3]): 10 nM

Nc1cc(SCc2cc(F)c(-c3ncon3)cc2F)c2nn[nH]c2n1 [Example 28, 7-((2,5-difluoro-4-(1,2,4-oxadiazol-3-yl)benzyl)thio)-3H-[1,2,3]triazolo[4,5-b] pyridin-5-amine]
IC50 (myeloperoxidase (MPO) [1]): 10 nM
IC50 (myeloperoxidase (MPO) [2]; [3]): 80 nM

Nc1cc(SCc2cc(C(F)(F)F)ccc2C(F)(F)F)c2nn[nH]c2n1 [Example 39, 7-((2,5-bis(trifluoromethyl)benzyl)thio)-3H-[1,2,3] triazolo[4,5-b]pyridin-5-amine]
IC50 (myeloperoxidase (MPO) [1]): 10 nM
IC50 (myeloperoxidase (MPO) [2]; [3]): 20 nM

Nc1cc(SCc2ccccc2-n2cccn2)c2nn[nH]c2n1 [Example 41, 7-((2-(1H-pyrazol-1-yl)benzyl)thio)-3H-[1,2,3] triazolo[4,5-b]pyridin-5-amine]
IC50 (myeloperoxidase (MPO) [1]): 20 nM
IC50 (myeloperoxidase (MPO) [2]; [3]): 80 nM

CCC(Sc1cc(N)nc2[nH]nnc12)c1ccccc1 (stereo not drawn) [Example 45, 7-((1-phenylpropyl)thio)-3H-[1,2,3]triazolo[4,5-b] pyridin-5-amine]
IC50 (myeloperoxidase (MPO) [1]): 20 nM
IC50 (myeloperoxidase (MPO) [2]; [3]): 80 nM

Nc1cc(SCc2ncccn2)c2nn[nH]c2n1 [Example 57, 7-((pyrimidin-2-ylmethyl)thio)-3H-[1,2,3]triazolo[4,5-b]pyridin-5-amine]
IC50 (myeloperoxidase (MPO) [1]): 100 nM
IC50 (myeloperoxidase (MPO) [2]; [3]): 500 nM

Nc1cc(SCc2cc(F)ccc2OC(F)(F)F)c2nn[nH]c2n1 [Example 66, 7-((5-fluoro-2-(trifluoromethoxy)benzyl)thio)-3H-[1,2,3]triazolo[4,5-b]pyridin-5-amine]
IC50 (myeloperoxidase (MPO) [1]): 10 nM
IC50 (myeloperoxidase (MPO) [2]; [3]): 20 nM

CCOC(=O)c1cc(CSc2cc(N)nc3[nH]nnc23)n(C)n1 [Example 70, ethyl 5-(((5-amino-3H-[1,2,3]triazolo[4,5-b]pyridin-7-yl)thio)methyl)-1-methyl-1H-pyrazole-3-carboxylate]
IC50 (myeloperoxidase (MPO) [1]): 50 nM
IC50 (myeloperoxidase (MPO) [2]; [3]): 760 nM

Cc1nn(-c2ccc(F)cc2)c(C)c1CSc1cc(N)nc2[nH]nnc12 [Example 72, 7-(((1-(4-fluorophenyl)-3,5-dimethyl-1H-pyrazol-4-yl)methyl)thio)-3H-[1,2,3] triazolo[4,5-b]pyridin-5-amine]
IC50 (myeloperoxidase (MPO) [1]): 460 nM
IC50 (myeloperoxidase (MPO) [2]; [3]): 580 nM

Cc1ncn(C)c1CSc1cc(N)nc2[nH]nnc12 [Example 77, 7-(((1,4-dimethyl-1H-imidazol-5-yl)methyl)thio)-3H-[1,2,3]triazolo[4,5-b] pyridin-5-amine]
IC50 (myeloperoxidase (MPO) [1]): 140 nM
IC50 (myeloperoxidase (MPO) [2]; [3]): 610 nM

Cc1nn(-c2ccccc2)c(Cl)c1CSc1cc(N)nc2[nH]nnc12 [Example 79, 7-(((5-chloro-3-methyl-1-phenyl-1H-pyrazol-4-yl)methyl)thio)-3H-[1,2,3] triazolo[4,5-b]pyridin-5-amine]
IC50 (myeloperoxidase (MPO) [1]): 30 nM
IC50 (myeloperoxidase (MPO) [2]; [3]): 7 nM

N#Cc1ccc(C2CC2)c(CSc2cc(N)nc3[nH]nnc23)c1 [Example 88, 3-(((5-amino-3H-[1,2,3]triazolo[4,5-b]pyridin-7-yl)thio)methyl)-4-cyclopropylbenzonitrile]
IC50 (myeloperoxidase (MPO) [1]): 30 nM
IC50 (myeloperoxidase (MPO) [2]; [3]): 9 nM

Nc1cc(SCc2ccccc2CN2CCC(Oc3ccccc3)C2)c2nn[nH]c2n1 (stereo not drawn) [Example 98, 7-((2-((3-phenoxypyrrolidin-1-yl)methyl)benzyl)thio)-3H-[1,2,3]triazolo[4,5-b] pyridin-5-amine]
IC50 (myeloperoxidase (MPO) [1]): 530 nM
IC50 (myeloperoxidase (MPO) [2]; [3]): 640 nM

CN(C)c1cc(-n2cc(CSc3cc(N)nc4[nH]nnc34)c(C(F)(F)F)n2)ccn1 [Example 141, 7-(((1-(2-(dimethylamino)pyridin-4-yl)-3-(trifluoromethyl)-1H-pyrazol-4-yl)methyl)thio)-3H-[1,2,3]triazolo [4,5-b]pyridin-5-amine]
IC50 (myeloperoxidase (MPO) [2]; [4]): ≤ 60 nM

Nc1cc(SCc2cn(-c3ccncc3)nc2C(F)F)c2nn[nH]c2n1 [Example 142]
IC50 (myeloperoxidase (MPO) [2]; [4]): ≤ 60 nM

Nc1cc(SCc2cn(-c3ccnnc3)nc2C(F)F)c2nn[nH]c2n1 [Example 143]
IC50 (myeloperoxidase (MPO) [2]; [4]): 200 to 1000 nM

Nc1cc(SCc2cn(-c3cnc(C(=O)N4CCC4)cn3)nc2C(F)F)c2nn[nH]c2n1 [Example 146]
IC50 (myeloperoxidase (MPO) [2]; [4]): 200 to 1000 nM

N#Cc1cn(-c2ccccc2)nc1CSc1cc(N)nc2[nH]nnc12 [Example 147, 3-(((5-amino-3H-[1,2,3]triazolo[4,5-b]pyridin-7-yl)thio)methyl)-1-phenyl-1H-pyrazol-4-carbonitrile]
IC50 (myeloperoxidase (MPO) [2]; [4]): 200 to 1000 nM

CN(C)Cc1cccc(-n2cc(CSc3cc(N)nc4[nH]nnc34)c(C(F)F)n2)c1 [Example 148, 7-(((3-(difluoromethyl)-1-(3-((dimethylamino)methyl)phenyl)-1H-pyrazol-4-yl)methyl)thio)-3H-[1,2,3]triazolo [4,5-b]pyridin-5-amine]
IC50 (myeloperoxidase (MPO) [2]; [4]): ≤ 60 nM

CN(C)CCNC(=O)c1cccc(-n2cc(CSc3cc(N)nc4[nH]nnc34)c(C(F)F)n2)c1 [Example 149, 3-(4-(((5-amino-3H-[1,2,3]triazolo[4,5-b]pyridin-7-yl)thio)methyl)-3-(difluoromethyl)-1H-pyrazol-1-yl)-N-(2-(dimethylamino)ethyl) benzamide]
IC50 (myeloperoxidase (MPO) [2]; [4]): 60 to 200 nM

CN(C)Cc1ccccc1-n1cc(CSc2cc(N)nc3[nH]nnc23)c(C(F)F)n1 [Example 150, 7-(((3-(difluoromethyl)-1-(2-((dimethylamino)methyl)phenyl)-1H-pyrazol-4-yl)methyl)thio)-3H-[1,2,3]triazolo [4,5-b]pyridin-5-amine]
IC50 (myeloperoxidase (MPO) [2]; [4]): ≤ 60 nM

CN(C)CCNC(=O)c1ccccc1-n1cc(CSc2cc(N)nc3[nH]nnc23)c(C(F)F)n1 [Example 151, 2-(4-(((5-amino-3H-[1,2,3]triazolo[4,5-b]pyridin-7-yl)thio)methyl)-3-(difluoromethyl)-1H-pyrazol-1-yl)-N-(2-(dimethylamino)ethyl) benzamide]
IC50 (myeloperoxidase (MPO) [2]; [4]): ≤ 60 nM

Nc1cc(SCc2cn(-c3cnccn3)nc2C(F)F)c2nn[nH]c2n1 [Example 152, 7-(((3-(difluoromethyl)-1-(pyrazin-2-yl)-1H-pyrazol-4-yl)methyl)thio)-3H-[1,2,3]triazolo [4,5-b]pyridin-5-amine]
IC50 (myeloperoxidase (MPO) [2]): 200 to 1000 nM

Nc1cc(SCc2nn(-c3ccccc3)nc2C(F)F)c2nn[nH]c2n1 [Example 153, 7-(((5-(difluoromethyl)-2-phenyl-2H-1,2,3-triazol-4-yl)methyl)thio)-3H-[1,2,3]triazolo [4,5-b]pyridin-5-amine]
IC50 (myeloperoxidase (MPO) [2]): 60 to 200 nM

N#Cc1cccc(F)c1CSc1nc(N)nc2[nH]nnc12 [Example 154, 2-(((5-Amino-3H-[1,2,3]triazolo[4,5-d]pyrimidin-7-yl)thio)methyl)-3-fluorobenzonitrile]
IC50 (myeloperoxidase (MPO) [2]; [4]): 60 to 200 nM

Nc1nc(SCc2ccccc2)c2nn[nH]c2n1 [Example 155, 7-(benzylthio)-3H-[1,2,3] triazolo[4,5-d]pyrimidin-5-amine]
IC50 (myeloperoxidase (MPO) [2]; [4]): 60 to 200 nM

Cc1nn(-c2ccccc2)c(Cl)c1CSc1nc(N)nc2[nH]nnc12 [Example 156, 7-(((5-chloro-3-methyl-1-phenyl-1H-pyrazol-4-yl)methyl)thio)-3H-[1,2,3] triazolo[4,5-b]pyrimidin-5-amine]
IC50 (myeloperoxidase (MPO) [2]; [4]): 60 to 200 nM

N#Cc1ccc(F)cc1CSc1nc(N)nc2[nH]nnc12 [Example 157, 2-(((5-amino-3H-[1,2,3]triazolo[4,5-d]pyrimidin-7-yl)thio)methyl)-4-fluorobenzonitrile]
IC50 (myeloperoxidase (MPO) [2]; [4]): 200 to 1000 nM

Nc1nc(SCc2ccccc2-n2cccn2)c2nn[nH]c2n1 [Example 158, 7-((2-(1H-pyrazol-1-yl)benzyl)thio)-3H-[1,2,3] triazolo[4,5-d]pyrimidin-5-amine]
IC50 (myeloperoxidase (MPO) [2]; [4]): 200 to 1000 nM

Cc1nn(Cc2ccccc2)c(Cl)c1CSc1nc(N)nc2[nH]nnc12 [Example 159, 7-(((1-benzyl-5-chloro-3-methyl-1H-pyrazol-4-yl)methyl)thio)-3H-[1,2,3] triazolo[4,5-d]pyrimidin-5-amine]
IC50 (myeloperoxidase (MPO) [2]; [4]): 200 to 1000 nM

Cn1nc(C(F)(F)F)c(CSc2nc(N)nc3[nH]nnc23)c1F [Example 160, 7-(((5-fluoro-1-methyl-3-(trifluoromethyl)-1H-pyrazol-4-yl)methyl)thio)-3H-[1,2,3]triazolo[4,5-d] pyrimidin-5-amine]
IC50 (myeloperoxidase (MPO) [2]; [4]): 200 to 1000 nM

N#Cc1ccc(C2CC2)c(CSc2nc(N)nc3[nH]nnc23)c1 [Example 161, 3-(((5-amino-3H-[1,2,3]triazolo[4,5-d]pyrimidin-7-yl)thio)methyl)-4-cyclopropylbenzonitrile]
IC50 (myeloperoxidase (MPO) [2]; [4]): 200 to 1000 nM

Cn1ncc2c(CSc3nc(N)nc4[nH]nnc34)cccc21 [Example 162, 7-(((1-methyl-1H-indazol-4-yl)methyl)thio)-3H-[1,2,3]triazolo[4,5-d] pyrimidin-5-amine]
IC50 (myeloperoxidase (MPO) [2]; [4]): 200 to 1000 nM

Cn1ncc(CSc2nc(N)nc3[nH]nnc23)c1C(F)(F)F [Example 163, 7-(((1-methyl-5-(trifluoromethyl)-1H-pyrazol-4-yl)methyl)thio)-3H-[1,2,3]triazolo[4,5-d] pyrimidin-5-amine]
IC50 (myeloperoxidase (MPO) [2]; [4]): 200 to 1000 nM

Cn1nc(C2CC2)cc1CSc1nc(N)nc2[nH]nnc12 [Example 165, 7-(((3-cyclopropyl-1-methyl-1H-pyrazol-5-yl)methyl)thio)-3H-[1,2,3] triazolo[4,5-d]pyrimidin-5-amine]
IC50 (myeloperoxidase (MPO) [2]; [4]): 200 to 1000 nM
